Several values for one entry are separate records, joined by “and”; a condition that tells them apart may be missing. Equal values may be shown once.
Assays:
[1] = test system: U87-MG cells; assay: Boyden chamber migration (chemotaxis), U87-MG; format: cell-based, human; settings: for % of the basal: sheet all data, Average all expts; for % of basal, average / % of basal / cells n°/field / % of basal (T-TEST list): sheet data scrambled; for % of basal, average: Average 2 expts
Protocol: The migration and invasion assays were performed using Boyden chambers and 8 µm pore size PVP-free filters coated with 50 µg/mL of collagen type VI (Sigma), as previously described. For the invasion assays, collagen-coated filters were further coated with 50 µg/mL Matrigel^TM (Sigma). Briefly, 11 × 10^4 U87-MG, 4 × 10^4 U251-MG, or 4 × 10^4 U138-MG/sample were pre-treated for 40 min at 37 °C with the indicated effectors. Then, the cells were allowed to migrate for 3 h or to invade for 5 h at 37 °C toward 5% FBS in DMEM/0.1% BSA. At the end of both assays, the cells on the lower filter surface were fixed, stained with haematoxylin, and counted under an optical microscope (Zeiss Axiophot, Carl Zeiss, Milan, Italy) at 20× magnification. The migration and invasion experiments were conducted in triplicate for U87-MG and in duplicate for U251-MG and U138-MG. The migrated or invaded cells were reported as percentage of basal migration or invasion in the presence of DMEM/0.1% BSA, taken as 100%, and analyzed as reported in Section 2.11.
Figure 3 Inhibition of U87-MG, U251-MG, and U138-MG GBM cellular migration by uPAcyclin. Quantitative analysis of U87-MG (A), U251-MG (B), and U138-MG (C) directional migration. A total of 11 × 10^4 U87-MG/sample or 4 × 10^4 U251-MG or U138-MG/sample were pre-treated for 40 min at 37 °C with uPAcyclin or S-peptide at the indicated concentrations, anti-αV polyclonal (anti-αV Pclonal) or monoclonal (anti-αV MoAb) antibody, or anti-GAPDH, and anti-α2 monoclonal antibody (anti-α2 MoAb), and then assayed in Boyden chambers at 37 °C, either for basal (BSA) or directional 5% FBS-dependent migration for 3 h at 37 °C. At the end of incubation, the filters were processed as described in Methods. Basal migration was taken as 100% and all values were calculated relative to that (* p-value < 0.05; ** p-value < 0.005; *** p-value < 0.001).

[2] = test system: U87-MG cells (αV integrin); assay: FITC-uPAcyclin receptor binding/competition, U87-MG; design: species or system human; settings: for FITC-uPAcyclin binding, single values: T-test sheet, single replicates of all EXPTs
Protocol: The U87-MG, U251-MG, and U138-MG cell lines were harvested and acid-treated, as described. Then, 2 × 10^6 cells/sample were exposed for 30 min at 4 °C to uPAcyclin or S-uPAcyclin at the indicated concentrations, or with the following antibodies: VNR147 monoclonal anti-αV integrin (Chemicon Int. Inc., Temecula, CA, USA), polyclonal anti-αV (Millipore, Burlington, MA, USA), monoclonal anti-α2 (Chemicon Int. Inc., Temecula, CA, USA), polyclonal anti-actin (Sigma-Aldrich, St. Louis, MO, USA), monoclonal anti-GAPDH (Abcam, Cambridge, UK), and purified vitronectin (VN, Corning, Glendale, AZ, USA). The cells were subsequently incubated with 50 nM FITC-uPAcyclin for 2 h at 4 °C, as described. At the end of incubation, the cells were washed and the cell surface-associated fluorescence was determined using a fluorimeter (VICTOR^TM X3-PerkinElmer, Waltham, MA, USA). All binding assays were performed three times, with duplicate samples, and analyzed as described in Section 2.11.
Figure 2 αV expression of U87-MG, U251-MG, and U138-MG GBM cells and specific binding of FITC-uPAcyclin. (A) U87-MG, U251-MG, U138-MG, HEK-293, and HEK-293/αV total cell lysates were subjected to Western blotting and probed using polyclonal anti-αV or polyclonal anti-actin as loading control. (B) A total of 2 × 10^6 U87-MG, U251-MG, U138-MG, HEK-293/αV, or HEK-293 cells were pre-incubated for 30 min at 4 °C with 500 nM uPAcyclin and further exposed to 50 nM FITC-uPAcyclin for 2 h at 4 °C. At the end of the incubation, the unbound material was washed and cell-associated FITC-uPAcyclin was quantitated by a fluorimeter. The net value of cell-surface-associated fluorescence, corresponding to the specific binding, is shown. (C) A total of 2 × 10^6 U87-MG, U251-MG, and U138-MG cells were pre-incubated for 30 min at 4 °C with increasing concentrations of unlabeled uPAcyclin and then assayed for binding of FITC-uPAcyclin, for 2 h at 4 °C. Cell-surface-associated fluorescence, as percentage of the samples […], is shown. (D) U87-MG cells were pre-incubated with uPAcyclin (1 pM, 100 nM), scrambled uPAcyclin (S-uPAcyclin, 1 pM and 100 nM)), vitronectin (200 µM), anti-αv polyclonal (anti-αV Pclonal, 5 µg/mL) or monoclonal (anti-αV MoAb, 5 µg/mL) or anti-α2 monoclonal (anti-α2 MoAb, 1 µg/mL), polyclonal anti-actin, and monoclonal anti GAPDH. Then, cells were treated as in B (* p-value < 0.05; *** p-value < 0.001).

[3] = 10pM, Expt n°2, replicate 1 (as labelled)
[4] = 10pM, Expt n°2, replicate 2 (as labelled)
[5] = 1nM, Expt n°2, replicate 1 (as labelled)
[6] = 1nM, Expt n°2, replicate 2 (as labelled)

“Ac-K^1P[ESPPEELK^10]-NH2 (sidechain bridge or staple) [uPAcyclin]” was tested, and the inhibition of migration ([1]; 1 nM, U87-MG, 5% FBS, 3 h) was 70–80%, the “migration, in words” value ([1]; 100 nM, U87-MG, 5% FBS, 3 h) was “below background levels” and the “% of the basal” value ([1]; 10pM) was 168%. For the same substance, the “% of the basal” value ([1]; 1nM) was 119%, the “% of the basal” value ([1]; 100nM) was 87% and the “% of basal, average” value ([1]; 10pM) was 143.5%. The “% of basal” value ([1]; 10pM, Expt n°1, replicate 1) was 133%, the “cells n°/field” value ([1]; 10pM, Expt n°1, replicate 1) was 14 cells n°/field and the “% of basal” value ([1]; 10pM, Expt n°1, replicate 2) was 143%. The “cells n°/field” value ([1]; 10pM, Expt n°1, replicate 2) was 15 cells n°/field, the “% of basal” value [1, 3] was 152% and the “cells n°/field” value [1, 3] was 16 cells n°/field. The “% of basal” value [1, 4] was 133%, the “cells n°/field” value [1, 4] was 14 cells n°/field and the “% of basal (T-TEST list)” value ([1]; 10 pM, T-TEST list value 1) was 143. The “% of basal (T-TEST list)” value ([1]; 10 pM, T-TEST list value 2) was 152, the “% of basal (T-TEST list)” value ([1]; 10 pM, T-TEST list value 3) was 133 and the “% of basal (T-TEST list)” value ([1]; 10 pM, T-TEST list value 4) was 143. The “% of basal, average” value ([1]; 1nM) was 131%, the “% of basal” value ([1]; 1nM, Expt n°1, replicate 1) was 124% and the “cells n°/field” value ([1]; 1nM, Expt n°1, replicate 1) was 13 cells n°/field. The “% of basal” value ([1]; 1nM, Expt n°1, replicate 2) was 124%, the “cells n°/field” value ([1]; 1nM, Expt n°1, replicate 2) was 13 cells n°/field and the “% of basal” value [1, 5] was 143%. For the same substance, the “cells n°/field” value [1, 5] was 15 cells n°/field, the “% of basal” value [1, 6] was 171% and the “cells n°/field” value [1, 6] was 18 cells n°/field. For the same substance, the “% of basal (T-TEST list)” value ([1]; 1 nM, T-TEST list value 1) was 133, the “% of basal (T-TEST list)” value ([1]; 1 nM, T-TEST list value 2) was 143 and the “% of basal (T-TEST list)” value ([1]; 1 nM, T-TEST list value 3) was 124. For the same substance, the “% of basal (T-TEST list)” value ([1]; 1 nM, T-TEST list value 4) was 124, the “FITC-uPAcyclin binding, single values” ([2]; competitor 1 pM) was 70 and 77 and 74 and 75 and the “FITC-uPAcyclin binding, single values” ([2]; competitor 100 nM) was 38 and 42 and 49 and 44 and 54. For the same substance, the Kdapp ([2]; unlabeled uPAcyclin vs FITC-uPAcyclin, U87-MG, 4 °C) was “low nanomolar range”.

“Ac-PS[EELKPEPK]-NH2 (sidechain bridge or staple) [S-uPAcyclin, scrambled control peptide]” was tested, and the “% of the basal” value ([1]; 10pM) was 169%, the “% of the basal” value ([1]; 1nM) was 183% and the “% of the basal” value ([1]; 100nM) was 160%. For the same substance, the “% of basal (T-TEST list)” value ([1]; 10 pM, T-TEST list value 1) was 171, the “% of basal (T-TEST list)” value ([1]; 10 pM, T-TEST list value 2) was 152 and the “% of basal (T-TEST list)” value ([1]; 10 pM, T-TEST list value 3) was 191. For the same substance, the “% of basal (T-TEST list)” value ([1]; 10 pM, T-TEST list value 4) was 162, the “% of basal (T-TEST list)” value ([1]; 1 nM, T-TEST list value 1) was 171 and the “% of basal (T-TEST list)” value ([1]; 1 nM, T-TEST list value 2) was 190. The “% of basal (T-TEST list)” value ([1]; 1 nM, T-TEST list value 3) was 191, the “% of basal (T-TEST list)” value ([1]; 1 nM, T-TEST list value 4) was 181 and the “% of basal (T-TEST list)” value ([1]; 100nM, T-TEST list value 2) was 158. The “% of basal (T-TEST list)” value ([1]; 100nM, T-TEST list value 3) was 158, the “% of basal (T-TEST list)” value ([1]; 100nM, T-TEST list value 4) was 162 and the “effect on migration, in words” value ([1]; up to 100 nM, U87-MG (Figure 3A)) was “ineffective up to 100 nM”. For the same substance, the “competition with FITC-uPAcyclin binding, in words” value ([2]; U87-MG, S-uPAcyclin 1 pM and 100 nM, vitronectin 200 µM, anti-αV 5 µg/mL, anti-α2 1 µg/mL) was “retains very little binding ability”, the “FITC-uPAcyclin binding, single values” ([2]; competitor 1 pM, listed as Scrambled uPAcyclin) was 85 and 88 and 80 and 75 and the “FITC-uPAcyclin binding, single values” ([2]; competitor 100 nM, listed as Scrambled uPAcyclin) was 74 and 80 and 82 and 75.
